Measurements reported in patent US20170119892A1, “REFILLABLE DRUG DELIVERY DEVICES AND METHODS OF USE THEREOF” (President and Fellows of Harvard College, priority 2014, published 2017).

Legend:
[1] = tested on: Alginate conjugated to (T)20 oligonucleotides, ionically crosslinked with calcium to form a gel; test: Binding of fluorescently-labeled oligonucleotides to DNA-conjugated calcium-alginate gels in vitro; conditions: phosphate buffer with 1 mM calcium chloride
[2] = tested on: MDA-MB-231 xenograft tumors; test: Xenograft tumor study with drug refilling; type: in vivo, J:Nu mice; conditions: 120 ug doxorubicin per animal IV weekly
Experimental: Tumors were created by injecting 10^6 MDA-MB-231 cells (American Type Culture Collection, VA) combined with Matrigel (BD Biosciences, CA) to a total volume of 200 μL (100 μL PBS and 100 μL Matrigel) into the hind limbs of 8 week old J:Nu (Foxn1^nu/Foxn1^nu) mice (Jackson Labs, ME). 35 days following tumor inoculation tumors were injected with alginate gels. 20 mg/mL alginate conjugated to DNA (thioT-SH or unconjugated) was mixed with doxorubicin (1.6 mg drug per mL of gel), then crosslinked with 4% wt/v CaSO4 (1.22 M) and then 50 μL of gel were injected into tumors with a 23-gauge needle. 2, 3, 4, and 5 weeks after initial tumoral gel injection, mice were injected retro-orbitally with 100 μL 0.5% DNA-conjugated alginate carrying doxorubicin (5% oxidized alginate, thioA-SH, Dye-750, 160 ug Dox-hydrazide=120 μg Dox). Throughout the study, tumor area was measured twice per week with digital calipers in two dimensions and the product of the two dimensional values was used to approximate tumor area. Mice were sacrificed on day 49. […]
Immunocompromised mice bearing MDA-MB-231 xenograft tumors were injected intra-tumor with phosphorothioate DNA-conjugated alginate gels releasing doxorubicin (80 ug per animal) or bolus doxorubicin in PBS. […] The ability of targeted therapy to reduce tumor size was assessed by monitoring the change in tumor size in the three days following each IV administration.

[3] = Alginate circulation time in the blood; type: in vivo, C57/B6 mice
Experimental: C57/B6 mice were injected retro-orbitally with 100 μL 0.5% fluorescent alginate (unoxidized alginate, Dye-750). Mice were shaved on the front and back and imaged with an IVIS Spectrum in vivo imager (ex: 745, em: 820) over 30 days. Shaving was repeated before every image collection. Fluorescence in the blood was measured through quantification of fluorescence in the snout area.
Efficient blood-based refilling of drug payloads relies on sufficient circulation lifetimes that allow payloads to encounter and bind to the primary device. The circulation time of alginate (285 KDa, 44 nm hydrodynamic radius (Rh)) conjugated to a near-IR probe (FIG. 6A) was analyzed following intravenous (IV) administration to mice. […] With a long circulation time, alginate can serve as an efficient intra-vascular drug carrier with the capability of extravasating and interacting with the primary drug delivery device.

(A)20: fluorescently-labeled AAAAAAAAAAAAAAAAAAAA-FAM oligonucleotide, SEQ ID NO: 6
binding of fluorescently-labeled oligonucleotides to gel surface [1]: bound to the gel surface in a sequence-specific manner

(T)20: fluorescently-labeled TTTTTTTTTTTTTTTTTTTT-FAM oligonucleotide, SEQ ID NO: 5
binding of fluorescently-labeled oligonucleotides to gel surface [1]: little binding

COc1cccc2c1C(=O)c1c(O)c3c(c(O)c1C2=O)C[C@@](O)(C(=O)CO)C[C@@H]3O[C@H]1C[C@H](N)[C@H](O)[C@H](C)O1 [doxorubicin]
change in tumor size in the three days following each IV administration [2]: continued to grow

alginate
circulatory half-life ([3]; IV administration to mice): about seven | remained in circulation ([3]; IV administration to mice, blood fluorescence measured at snout): at least 14 days | organ accumulation (imaging of individual organs) ([3]; two days after injection): accumulation in the lungs, liver, spleen, and to a lesser extent in the kidneys
